Where no end group is shown, it is not given here.

Results on 1 sequence are retold here after article PMC7440915, “Discovery of surrogate agonists for visceral fat Treg cells that modulate metabolic indices in vivo” (eLife, 2020).

Assay [1] concerns vTreg53 TCR (transduced Jurkat T cells). The assay can be described thus: CD69/CD25 up-regulation on vTreg53 TCR transduced Jurkat T cells with peptide-pulsed K562-A^b cells. Format: cell-based, Homo sapiens (cells); murine TCR. The procedure: (§1) Figure 3. Identification of robust vTreg53 TCR agonists. Single-point mutants based on the Fat7 (A) or Fat15 (B) peptides were used to stimulate Fat-TCR transduced Jurkat T cells. Data shown are mean fluorescence intensity for CD69 up-regulation following overnight stimulation with the indicated peptides at 100 µM. (C) Potent SPs based on Fat15. Single-residue mutations from the Fat15 are shown in red. Anchor positions are shown in grey and potential TCR-facing positions are shown in green. A peptide titration of single- and double-point mutants from the Fat15 SP show up to ~4- (D; CD69) or ~8 fold (E; CD25) increase in Emax. (F) Surface plasmon resonance for Fat7, Fat15, Fat1562 and Fat2564 was used to determine the pMHC/Fat TCR affinity. All biotinylated pMHC were purified by SEC and immobilized in a streptavidin-coated SPR sensor chip from 200 up to 600 RU. Data are mean ± SD from n = 2 (A, D, E) or 3 (B) biological replicates from 1 representative of 3 independent experiments. Data shown in (F) is representative of 2 independent experiments. Figure 3—figure supplement 1. In vitro peptide stimulation of the vTreg53 TCR cells. (A) Expression of wild-type Ab MHC in stably transduced K562 cells. (B) Expression of vTreg53 TCR in stably transduced Jurkat T cells (TCRαβ-/-). (C) Fraction of CD25+/CD69+ cells following overnight stimulation with Fat mimotopes at the indicated concentrations. (D) Peptide-A^b - streptavidin PE (pAb -SAPE) titration of vTreg53 transduced Jurkat T cells. Cells were stained with 250 nM of pA^b-SAPE tetramer for 1 hr.
Cell lines were kept in a humidified incubator at 37°C with 5% CO2 unless otherwise denoted. Jurkat T cells (derived from acute T cell leukemia ATCC TIB-152) and K562 cells (ATCC CCL-243) were cultured in RPMI supplemented with 2 mM glutamax (Invitrogen), 10% FBS (Sigma),10 mM HEPES pH 8.0 (ThermoFisher), 1 mM Sodium Pyruvate (Gibco) and 50 U/ml penicillin and streptomycin (ThermoFisher). Validation of T cell lines was performed by staining with known markers pre- and post- transfection or transduction. HEK293T (Lenti-X; Takara Bio USA, #632180) cells (female derived kidney cell line) were grown in DMEM complete media (ThermoFisher) supplemented with 10% FBS, 2 mM L-glutamine, and 50 U/ml of penicillin and streptomycin. Cells were tested for mycoplasma contamination using the MycoAlert Mycoplasma Detection kit (Lonza) and found to be mycoplasma-negative. For peptide assays, Jurkat T cells were rested overnight or for 2–3 hr in fresh RPMI complete. Cells were co-cultured for 16 to 48 hr with surrogate APCs: K562 transduced with A^b. After overnight incubation, cells were washed in MACS buffer and stained with anti-TCR, A^b, CD69 and CD25. EBY100 yeast cells were cultured in sterile filtered standard YPD (Bacto Peptone, glucose and yeast extract). Transformed yeast were grown in SDCAA (yeast nitrogen base, casamino acids -ADE, -URA, -TRP, D-glucose and buffered to pH 4.5 using sodium citrate and citric acid monohydrate) and induced in SGCAA where galactose replaces D-glucose. EBY100 cells are grown at 30°C when cultured in SDCAA, or at 20°C when cultured in SGCAA at atmospheric CO2 in an orbital shaker set to an agitation speed of 250 rpm.

The target in another assay is vTreg53 (Fat) TCR. The experiment in a line: Surface plasmon resonance, pMHC/Fat TCR affinity. Format: binding, murine. To be noted: 25°C. The method, then:
as §1
High Five cells (Tni; Expression Systems) were grown in Insect X-press media (Lonza) or ESF 921 media (Expression Systems) with a final concentration of 10 mg/L of gentamicin sulfate (ThermoFisher) at 27°C at atmospheric CO2. SF9 cells are grown in SF900-III or -II serum-free media (ThermoFisher) with 10% FBS and final concentration 10 mg/L of gentamicin sulfate and 2 mM glutamax at 27°C at atmospheric CO2. P1 or P2 virus was used to infect volumes of 1–3 L of Hi5 cells at ∼2 × 10^6 cells/ml. Supernatant was harvested 2–3 days post-infection and spun down at 8000 rpm for 15 min. The supernatant containing expressed protein was treated to 100 mM Tris pH 8.0, 1 mM NiCl2, and 5 mM CaCl2 to precipitate contaminants. The supernatant and precipitate mixture was spun down at 8000 rpm for 20 min at 4°C to remove precipitate. The supernatant was incubated with Ni-NTA resin (QIAGEN) for >3 hr at room temperature. Ni-NTA beads were collected and washed in a Buchner funnel with 20 mM imidazole in 1 x HBS pH 7.2 and eluted with 200 mM imidazole in 1x HBS pH 7.2. Protein was concentrated in a 10 kDa filter (Millipore, UFC903024) to ~1 mL. When appropriate, protein was biotinylated with BirA ligase, 100 μM biotin, 40 mM Bicine pH 8.3, 10 mM ATP, and 10 mM Magnesium Acetate at 4°C overnight. All proteins were further purified by size-exclusion chromatography using Superdex Increase S200 or S75, as appropriate (GE Healthcare). All proteins for in vivo studies were cleared of endotoxin. Final endotoxin levels were determined using a chromogenic endotoxin quantitation kit (Thermo Fisher) and never greater than 1 Endotoxin Unit/mg of purified protein.
A GE Biacore T100 was used to measure the KD by equilibrium methods. Approximately 200 resonance units (RU) of human CD45, PD-1 or mouse PD-1 was captured on a SA-chip (GE Healthcare), including a reference channel of an unrelated protein. SPR runs were performed in HBS-P+ (GE Healthcare). All measurements were made with 2-fold serial dilutions using 45–60 s association (at 30 μl/min) followed by >240 s dissociation (30 μl/min) at 25°C. Regeneration was performed using HBS-P+, 2 M MgCl2 or 0.1 M Glycine, pH 3.1 for 15–20 s at 50 μl/min. Measurement of titrations at equilibrium were used to determine the KD using Biacore Analysis Software (GE Healthcare). All measurements were repeated twice.
(SPR reads the build-up and loss of mass on a sensor chip optically.)

Broadly, the EC50 is the concentration at which the effect is half-maximal. Usually Kd stands for the free concentration of one partner at which half of the binding sites on the other are occupied at equilibrium, for simple one-to-one binding. Low values mean higher affinity, high ones lower affinity. Regarding TMYKNPRPVAATG [Fat15], the “CD69 up-regulation” value in assay [1] (overnight stimulation, screen at 100 µM) was “able to up-regulate CD69 expression”. A half-maximal response in assay [1] (peptide titration, CD69 (Figure 3D), overnight, mean ± SD from n = 2 biological replicates, 1 representative of 3 experiments) (EC50) required 40.7 µM. The same sequence returned a Kd at vTreg53 (Fat) TCR (Biacore T100, biotinylated pMHC immobilized on SA chip 200 to 600 RU, HBS-P+, equilibrium, representative of 2 experiments) of 32.8 µM. In the assay with vTreg53 (Fat) TCR (SPR), the “koff” value was “fast kon and koff”; the “kon” value is listed as “fast kon”.
